According to patent US5298494A, “Monosaccharides having anti-proliferation and anti-inflammatory activity, compositions and uses thereof” (Greenwich Pharmaceuticals Incorporated, priority 1993, dated 1994):
Where two headings read alike, the source gives them in different places.

Tested on: T lymphocytes (normal mouse spleen cells) stimulated with ConA
Assay: Mouse Spleen Cell ConA Blastogenesis Assay
Assay type: cell-based, mouse (C57Bl/6)
Settings: for inhibition at 1 µg/mL / inhibition at 2.5 µg/mL / inhibition at 10 µg/mL / inhibition at 25 µg/mL / inhibition at 100 µg/mL / inhibition at 0.01 µg/mL / inhibition at 0.1 µg/mL / inhibition at 0.001 µg/mL: Mus musculus, T-lymphocyte; for strong antiproliferative effect on ConA blastogenic response: concentration not given
[1] = ConA 1 ug/ml, compound 1 ug/ml, read-out: % change from control, ConA blastogenic response
[2] = ConA 1 ug/ml, compound 2.5 ug/ml, read-out: % change from control, ConA blastogenic response
[3] = ConA 1 ug/ml, compound 10 ug/ml, read-out: % change from control, ConA blastogenic response
[4] = ConA 1 ug/ml, compound 25 ug/ml, read-out: % change from control, ConA blastogenic response
[5] = ConA 1 ug/ml, compound 100 ug/ml, read-out: % change from control, ConA blastogenic response
[6] = ConA 4 ug/ml, compound 1 ug/ml, read-out: % change from control, ConA blastogenic response
[7] = ConA 4 ug/ml, compound 2.5 ug/ml, read-out: % change from control, ConA blastogenic response
[8] = ConA 4 ug/ml, compound 10 ug/ml, read-out: % change from control, ConA blastogenic response
[9] = ConA 4 ug/ml, compound 25 ug/ml, read-out: % change from control, ConA blastogenic response
[10] = ConA 4 ug/ml, compound 100 ug/ml, read-out: % change from control, ConA blastogenic response
[11] = ConA 1 ug/ml, compound 0.01 ug/ml, read-out: % change from control, ConA blastogenic response
[12] = ConA 1 ug/ml, compound 0.1 ug/ml, read-out: % change from control, ConA blastogenic response
[13] = ConA 4 ug/ml, compound 0.01 ug/ml, read-out: % change from control, ConA blastogenic response
[14] = ConA 4 ug/ml, compound 0.1 ug/ml, read-out: % change from control, ConA blastogenic response

Row | SMILES | inhibition at 1 µg/mL [1] [%] | inhibition at 2.5 µg/mL [2] [%] | inhibition at 10 µg/mL [3] [%] | inhibition at 25 µg/mL [4] [%] | inhibition at 100 µg/mL [5] [%] | inhibition at 1 µg/mL [6] [%] | inhibition at 2.5 µg/mL [7] [%] | inhibition at 10 µg/mL [8] [%] | inhibition at 25 µg/mL [9] [%] | inhibition at 100 µg/mL [10] [%] | strong antiproliferative effect on ConA blastogenic response | inhibition at 0.01 µg/mL [11] [%] | inhibition at 0.1 µg/mL [12] [%] | inhibition at 0.01 µg/mL [13] [%] | inhibition at 0.1 µg/mL [14] [%] | further results
1 | CN1CCCC1CCNC[C@H]1OC(C)(C)O[C@@H]2[C@H]3OC(C)(C)O[C@H]3O[C@@H]21 (some centres unmarked) [IIIi] | -25 | -16 | -10 | 23 | 91 | 9 | 14 | 9 | 50 | 95 | greater than -50 % of control | – | – | – | – | –
2 | CC1(C)OC2OC(C(O)COCCCc3ccccc3)C(O)C2O1 [IIIe, 1,2-O-Isopropylidene-6-O-3'-(phenylpropyl)-α-D-glucofuranose] | 78 | 94 | 98 | 99 | 99 | 76 | 91 | 97 | 99 | 100 | greater than -50 % of control | – | – | – | – | –
3 | CCCCC/C=C/COC[C@H]1O[C@@]2(OC)COC(C)(C)O[C@H]2[C@@H]1OC/C=C/CCCCC [Ie, methyl 1,3-O-isopropylidene-4,6-di-O-(trans,2-octenyl)-α-D-fructofuranoside] | 34 | 72 | 91 | 99 | 100 | 59 | 79 | 92 | 99 | 100 | – | 22 | 18 | 4 | 9 | inhibition at 0.01 µg/mL (ConA 1 ug/ml, 0.01 ug/ml, read-out: % Change from Control (Table II)): 2%; inhibition at 0.01 µg/mL (ConA 4 ug/ml, 0.01 ug/ml, read-out: % Change from Control (Table II)): 8%
4 | CCCCCCCOC[C@H]1O[C@@]2(OC)COC(C)(C)O[C@H]2[C@@H]1O [Ia, methyl 1,3-O-isopropylidene-6-O-heptyl-α-D-fructofuranoside] | -1 | 15 | 52 | 97 | 99 | 9 | 25 | 41 | 84 | 93 | – | 19 | -28 | 14 | -5 | effect on ConA T lymphocyte proliferation in words: dose-dependent, significant, inhibitory effect; Blastogenic response of normal spleen cells to Con-A (ConA 1 ug/ml, compound 0.001 ug/ml): 52.6 ± 3.8 × 10^-3 cpm; Blastogenic response of normal spleen cells to Con-A (ConA 1 ug/ml, compound 0.01 ug/ml): 45.1 ± 4.9 × 10^-3 cpm; Blastogenic response of normal spleen cells to Con-A (ConA 1 ug/ml, compound 0.1 ug/ml): 71.1 ± 4.9 × 10^-3 cpm; Blastogenic response of normal spleen cells to Con-A (ConA 1 ug/ml, compound 1 ug/ml): 55.7 ± 8.4 × 10^-3 cpm; Blastogenic response of normal spleen cells to Con-A (ConA 1 ug/ml, compound 2.5 ug/ml): 47.2 ± 7.0 × 10^-3 cpm; Blastogenic response of normal spleen cells to Con-A (ConA 1 ug/ml, compound 10 ug/ml): 26.5 ± 8.8 × 10^-3 cpm; Blastogenic response of normal spleen cells to Con-A (ConA 1 ug/ml, compound 25 ug/ml): 1.5 ± 0.4 × 10^-3 cpm; Blastogenic response of normal spleen cells to Con-A (ConA 1 ug/ml, compound 100 ug/ml): 0.6 ± 0.1 × 10^-3 cpm; Blastogenic response of normal spleen cells to Con-A (ConA 4 ug/ml, compound 0.001 ug/ml): 68.7 ± 5.0 × 10^-3 cpm; Blastogenic response of normal spleen cells to Con-A (ConA 4 ug/ml, compound 0.01 ug/ml): 72.8 ± 0.8 × 10^-3 cpm; Blastogenic response of normal spleen cells to Con-A (ConA 4 ug/ml, compound 0.1 ug/ml): 88.8 ± 2.4 × 10^-3 cpm; Blastogenic response of normal spleen cells to Con-A (ConA 4 ug/ml, compound 1 ug/ml): 77.0 ± 4.2 × 10^-3 cpm; Blastogenic response of normal spleen cells to Con-A (ConA 4 ug/ml, compound 2.5 ug/ml): 63.8 ± 2.3 × 10^-3 cpm; Blastogenic response of normal spleen cells to Con-A (ConA 4 ug/ml, compound 10 ug/ml): 50.2 ± 3.4 × 10^-3 cpm; Blastogenic response of normal spleen cells to Con-A (ConA 4 ug/ml, compound 25 ug/ml): 13.7 ± 2.0 × 10^-3 cpm; Blastogenic response of normal spleen cells to Con-A (ConA 4 ug/ml, compound 100 ug/ml): 6.3 ± 2.2 × 10^-3 cpm; inhibition at 0.001 µg/mL (ConA 1 ug/ml, compound 0.001 ug/ml, read-out: % change from control, ConA blastogenic response): 5%; inhibition at 0.001 µg/mL (ConA 4 ug/ml, compound 0.001 ug/ml, read-out: % change from control, ConA blastogenic response): 19%
